# Results taken from patent US20250032623A1, “HETEROBIFUNCTIONAL COMPOUNDS AND THEIR USE IN TREATING DISEASE” (HALDA THERAPEUTICS OPCO, INC., priority 2021, published 2025).
# pIC50, pKd: −log10 of the molar value.
# Assays:
# HEK293 cells = experiment: Cellular growth inhibition assay (CellTiter-Glo), HEK293 cells; assay type: cell-based; settings: Homo sapiens, 72 h, three days compound treatment, CellTiter-Glo 2.0, read-out: CTG HEK293 GI50
# Method in brief: (§1)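 HEK293 or HeLa cells seeded at 500 cells/well in DMEM with 10% FBS, treated after 24 h with titrated compound for three days at 37 °C, 5% CO2. CellTiter-Glo 2.0 luminescence read on Day 0 and Day 3, normalized to DMSO, four-parameter fit giving GI50.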
# HeLa cells = experiment: Cellular growth inhibition assay (CellTiter-Glo), HeLa cells; assay type: cell-based; settings: Homo sapiens, 72 h, three days compound treatment, CellTiter-Glo 2.0, read-out: CTG HELA GI50
# Method in brief: as §1
# KRAS G12C = molecular target: T1, KRAS G12C (Homo sapiens, UniProt P01116, G12C); experiment: KRAS G12C nucleotide exchange assay (SOS1 mediated, HTRF); assay type: biochemical; settings: 1 hr pre-incubation at RT, read-out: IC50 (inhibition of KRas G12C)
# T1 construct: Kras (aa 2-169), GST; purchased Reaction Biology Corporation (RBC)
# T1 sequence (P01116 2-169 isoform P01116-2 G12C): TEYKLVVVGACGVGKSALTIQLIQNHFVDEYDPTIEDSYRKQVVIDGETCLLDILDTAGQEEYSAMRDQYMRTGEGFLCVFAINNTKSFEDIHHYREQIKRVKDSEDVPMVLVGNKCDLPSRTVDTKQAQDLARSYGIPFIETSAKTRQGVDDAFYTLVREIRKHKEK
# Method in brief: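 HTRF nucleotide exchange using KRAS G12C mixed with anti-GST Tb antibody and pre-incubated with compound for 1 h at RT. Exchange was started with SOS1 plus labelled GTP. Compounds ran as 10-point, 3-fold dilutions from 10 μM, with no-SOS1 or top concentration as blank and IC50 from a variable-slope sigmoidal fit.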
# [1] = molecular target: T2, full-length CDK9 (amino acids 1-372; Accession Number NP_001252.1) (Homo sapiens, UniProt P50750); experiment: KdELECT binding assay, CDK9
# T2 construct: full-length CDK9 (amino acids 1-372); purchased; host or cells: bacteria (E. coli, BL21-derived, T7 phage)
# T2 sequence (P50750 whole entry, the tested form may be a part): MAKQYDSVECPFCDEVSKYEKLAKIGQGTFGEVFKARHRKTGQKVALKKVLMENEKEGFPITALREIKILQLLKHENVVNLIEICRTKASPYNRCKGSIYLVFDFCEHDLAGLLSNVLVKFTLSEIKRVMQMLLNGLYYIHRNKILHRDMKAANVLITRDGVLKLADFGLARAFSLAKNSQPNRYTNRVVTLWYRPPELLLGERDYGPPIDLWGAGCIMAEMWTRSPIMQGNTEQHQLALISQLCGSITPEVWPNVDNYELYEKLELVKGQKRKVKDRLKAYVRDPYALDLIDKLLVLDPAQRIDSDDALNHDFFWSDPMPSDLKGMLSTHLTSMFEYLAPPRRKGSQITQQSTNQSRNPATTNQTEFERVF
# Description: Exemplary compounds were tested for ability to bind to full-length CDK9 (amino acids 1-372; Accession Number NP_001252.1) expressed from bacteria. Compounds were tested using a KdELECT assay.
# Kinase-tagged T7 phage strains were prepared in an E. coli host derived from the BL21 strain. E. coli were grown to log-phase and infected with T7 phage and incubated with shaking at 32° C. until lysis. The lysates were centrifuged and filtered to remove cell debris. The remaining kinases were produced in HEK-293 cells and subsequently tagged with DNA for qPCR detection. Streptavidin-coated magnetic beads were treated with biotinylated small molecule ligands for 30 minutes at room temperature to generate affinity resins for kinase assays. The liganded beads were blocked with excess biotin and washed with blocking buffer (SeaBlock (Pierce), 1% BSA, 0.05% Tween 20, 1 mM DTT) to remove unbound ligand and to reduce non-specific binding. Binding reactions were assembled by combining kinases, liganded affinity beads, and test compounds in 1× binding buffer (20% SeaBlock, 0.17×PBS, 0.05% Tween 20, 6 mM DTT). Test compounds were prepared as 111× stocks in 100% DMSO. Kd values were determined using an 11-point 3-fold compound dilution series with three DMSO control points. All compounds for Kd measurements are distributed by acoustic transfer (non-contact dispensing) in 100% DMSO. The compounds were then diluted directly into the assays such that the final concentration of DMSO was 0.9%. All reactions performed in polypropylene 384-well plate. Each was a final volume of 0.02 mL. The assay plates were incubated at room temperature with shaking for 1 hour and the affinity beads were washed with wash buffer (1×PBS, 0.05% Tween 20). The beads were then re-suspended in elution buffer (1×PBS, 0.05% Tween 20, 0.5 μM nonbiotinylated affinity ligand) and incubated at room temperature with shaking for 30 minutes. The kinase concentration in the eluates was measured by qPCR.
compound,measurement,setting,value
"CCc1cnn2c(NCc3ccc(OCCOCCOCCOCCOCCN(C)C/C=C/C(=O)N4CCN(c5nc(OC[C@@H]6CCCN6C)nc6c5CCN(c5cccc7cccc(Cl)c57)C6)C[C@@H]4CC#N)nc3)cc(N3CCCC[C@H]3CCO)nc12 [Compound I-92, 2-((S)-4-(7-(8-chloronaphthalen-1-yl)-2-(((S)-1-methylpyrrolidin-2-yl)methoxy)-5,6,7,8-tetrahydropyrido [3,4-d]pyrimidin-4-yl)-1-((E)-1-((5-(((3-ethyl-5-((S)-2-(2-hydroxyethyl)piperidin-1-yl)pyrazolo[1,5-a]pyrimidin-7-yl)amino)methyl)pyridin-2-yl)oxy)-15-methyl-3,6,9,12-tetraoxa-15-azanonadec-17-en-19-oyl)piperazin-2-yl)acetonitrile]",GI50,HEK293 cells,500 to 1500 nM
same,GI50,HeLa cells,< 500 nM
same,pIC50,KRAS G12C,> 7.00
same,pKd,[1],< 5.60
